Experimental data from patent publication US6127360A, “Diamine derivatives and pharmaceutical containing the same” (Kowa Co., Ltd., priority 1997, dated 2000).

How the values were obtained:
LTD4 receptor = molecular target: T1, LTD4 receptor (Cavia porcellus, UniProt Q2NNR5); assay: LTD4 Receptor Binding Inhibition Test ([3H]LTD4, guinea pig pulmomembranous protein); settings: read-out: LTD4 receptor dissociation constant (KD)
T1 construct: guinea pig pulm-omembranous protein and a test compound; from tissue; host or cells: guinea pig lung membranes
T1 sequence (Q2NNR5 1-340): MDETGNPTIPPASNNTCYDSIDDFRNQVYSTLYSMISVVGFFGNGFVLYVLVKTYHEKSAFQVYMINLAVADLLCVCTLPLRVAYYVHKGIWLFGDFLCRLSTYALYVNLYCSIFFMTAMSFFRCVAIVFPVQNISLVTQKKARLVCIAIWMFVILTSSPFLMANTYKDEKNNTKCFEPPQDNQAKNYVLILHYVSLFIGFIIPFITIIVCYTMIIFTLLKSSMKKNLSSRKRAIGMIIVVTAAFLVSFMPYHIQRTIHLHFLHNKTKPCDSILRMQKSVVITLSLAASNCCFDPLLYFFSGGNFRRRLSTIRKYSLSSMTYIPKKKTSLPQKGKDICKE
Method: LTD4 Receptor Binding Inhibition Test
An ice-cold tris hydrochloride/sodium chloride buffer (10 mM/100 mM, pH 7.5) was added to terminate the reaction, followed by immediate filtration through a Wattman CF/C filter. The filter was washed twice with 20 ml aliquots of the ice-cold buffer. The radioactivity of the residue was measured by a liquid scintillation counter.
In a binding assay, […] LTD4 was used for the measurement of a nonspecific binding.

H1 receptor = molecular target: T2, H1 receptor (Cavia porcellus, UniProt P31389); assay: H1 Receptor Binding Inhibition Test ([3H]mepyramin, guinea pig cerebromembranous protein); settings: read-out: H1 receptor dissociation constant (KD)
T2 construct: guinea pig cerebromembranous protein and a test compound; from tissue; host or cells: guinea pig brain membranes
T2 sequence (P31389 whole entry): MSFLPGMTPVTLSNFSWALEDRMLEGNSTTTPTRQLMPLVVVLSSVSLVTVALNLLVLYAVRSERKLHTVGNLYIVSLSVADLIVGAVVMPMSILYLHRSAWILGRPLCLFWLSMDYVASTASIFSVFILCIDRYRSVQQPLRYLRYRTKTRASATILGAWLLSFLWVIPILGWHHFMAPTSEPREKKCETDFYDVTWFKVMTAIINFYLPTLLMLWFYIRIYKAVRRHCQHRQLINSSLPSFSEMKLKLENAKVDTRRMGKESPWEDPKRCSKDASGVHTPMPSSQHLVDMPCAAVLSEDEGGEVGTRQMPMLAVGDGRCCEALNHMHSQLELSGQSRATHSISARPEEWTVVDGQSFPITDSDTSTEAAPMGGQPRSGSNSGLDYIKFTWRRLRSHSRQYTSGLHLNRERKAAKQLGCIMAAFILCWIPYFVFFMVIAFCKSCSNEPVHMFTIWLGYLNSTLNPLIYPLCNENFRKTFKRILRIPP
Method: H1 Receptor Binding Inhibition Test
An ice-cold phosphate buffer was added to terminate the reaction, followed by immediate filtration through a Wattman CF/C filter. The filter was washed twice with 20 ml aliquots of the ice-cold buffer. The radio-activity of the residue was measured by a liquid scintillation counter. From a measurement value obtained without the addition of the test compound and measurements values obtained upon addition of the test compound at various concentrations, the dose-response of the inhibitory action of the test compound was measured and the 50% inhibitory concentration (IC50) was determined. Using the Cheng-Prusoff formula, a dissociation constant (KD) was calculated from the 50% inhibitory concentration (IC50).
In a binding assay, 10^4 M R(-)dimethindene was used for the measurement of a nonspecific binding.

[1] = molecular target: T3, isolated guinea pig ileum (Cavia porcellus, UniProt Q2NNR5); assay: Anti-LTD4 action on isolated guinea pig ileum (LTD4 contraction); type: cell-based; settings: 10^-5 M test compound; contraction caused by 10^-8 M LTD4; read-out: Anti-LTD4 action (inhibition rate)
T3 construct: An isolated guinea pig ileum was cut into about 2 cm lengths; from tissue; host or cells: guinea pig ileum
T3 sequence (Q2NNR5 1-340): T1 sequence (Q2NNR5 1-340)
Method: Antihistaminic Action and Anti-LTD4 Action (In vitro Tests)
An isolated guinea pig ileum was cut into about 2 cm lengths. Each ileum piece was suspended in a 20-ml container filled with the Tyrode's buffer. An isotonic contractive response by histamine or LTD4 was recorded on a recorder. The Tyrode's buffer was controlled at 30° C., through which a mixed gas (95%O2 -5%CO2) was bubbled.

H1 = molecular target: T4, H1 (Mus musculus, UniProt P70174); assay: Brain Penetration Test (ex vivo [3H]mepyramin binding in mouse brain); settings: ip; for ED50: peritoneal administration to mouse, brain taken 1 hour after, [3H]mepyramin 0.5 nM, read-out: IC50 (50% inhibitory dose), ex vivo; for selectivity ratio at 1 h: mouse, brain, IC50 (mg/kg)/H1 binding inhibition dissociation constant (nM), read-out: BP index
T4 construct: from tissue; host or cells: mouse brain homogenate, ex vivo after intraperitoneal dosing
T4 sequence (P70174 whole entry): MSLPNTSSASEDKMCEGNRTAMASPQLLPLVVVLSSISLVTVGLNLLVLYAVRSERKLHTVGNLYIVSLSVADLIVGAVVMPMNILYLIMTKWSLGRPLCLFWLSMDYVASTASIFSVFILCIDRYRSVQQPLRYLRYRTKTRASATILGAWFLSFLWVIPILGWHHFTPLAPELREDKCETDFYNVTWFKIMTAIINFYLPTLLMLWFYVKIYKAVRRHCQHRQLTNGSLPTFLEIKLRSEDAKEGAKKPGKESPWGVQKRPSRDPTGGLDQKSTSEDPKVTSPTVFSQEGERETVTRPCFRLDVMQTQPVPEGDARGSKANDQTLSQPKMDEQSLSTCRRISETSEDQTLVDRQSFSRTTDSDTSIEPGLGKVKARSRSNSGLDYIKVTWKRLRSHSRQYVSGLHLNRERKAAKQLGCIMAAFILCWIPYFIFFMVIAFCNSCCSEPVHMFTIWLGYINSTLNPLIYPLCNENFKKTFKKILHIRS
Method: Described specifically, to a mouse of 20 g to 23 g, a test compound of a given concentration was peritoneally administered. Upon elapsed time of one hour after the administration, the mouse was sacrificed. The brain tissue was taken out, and was then homogenated with a 30 mM Na,K phosphate buffer (pH 7.5) to give 40 ml/g wet weight. […] Subsequent to incubation at 37° C. for 50 minutes, an ice-cold phosphate buffer was added to terminate the reaction. Each of the resulting mixtures was immediately filtered through Wattman CF/C filter. The filter was washed twice with 20 ml aliquots of the ice-cold buffer. The radioactivity of the residue was measured by a liquid scintillation counter. […] A BP index as an index of brain penetration was calculated in accordance with the following formula:
BP index=IC50 (mg/kg)/H1 binding inhibition dissociation constant (nM)

| Ki (LTD4 receptor) [nM] | Ki (H1 receptor) [nM] | inhibition at 10 µM [1] [%] | ED50 (H1) [mg/kg] | SMILES | selectivity ratio at 1 h (H1) |
| --- | --- | --- | --- | --- | --- |
| 9410 | 5.01 | 16 | 8.5 | O=C1CSc2cc(OCCCN3CCN(Cc4ccc5ccccc5n4)CC3)ccc2N1 [Example 90, 7-{3-[4-(2-quinolylmethyl)piperazinyl]propoxy}-3,4-dihydro-2H-1,4-benzothiazin-3-one] | 1.7 |
| – | – | – | 10 | Cc1ccc(OCCCN2CCN(Cc3ccc4ccccc4n3)CC2)c2c1NC(=O)CC2 [Example 91, 8-methyl-5-{3-[4-(2-quinolylmethyl)piperazinyl]propoxy}-1,2,3,4-tetrahydroquinolin-2-one] | 35.7 |
| 4230 | 55.7 | 42 | 16.5 | Cc1ccc(OCCCN2CCN(Cc3ccc4ccccc4n3)CC2)c2c1NC(=O)C2(C)C [Example 92] | 0.29 |
